Here are results for 18 molecules from patent US9856279B2 (AGIOS PHARMACEUTICALS, INC, priority 2011, dated 2018).

Experiment [1] has as its target IDH1 R132H (Homo sapiens, UniProt O75874, R132H). Kind of experiment: Assay for IDH1 R132H inhibitors (NADPH/aKG, resazurin detection). In kind it is biochemical. The settings on record: enzyme assay of Example 12; read-out: IDH1R132H IC50. The gist of the method: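 Read-out is resorufin fluorescence (Ex544/Em590) 5 min after adding a 30 μM resazurin detection mix. Before that, mutant enzyme (0.2 μg/ml in its mix) ran 50 min at room temperature with compound, 8 uM NADPH and 2 mM aKG (mix levels) in Tris pH 7.5 with NaCl, MgCl2, BSA.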
A general note: Alamar Blue is a resazurin reagent that responds to reducing activity.

In experiment [2] the test system is HT1080 cells. Kind of experiment: Cellular assay for IDH1m inhibitors: inhibition of 2-HG production (LC-MS, 48 hours) in HT1080 cells. In kind it is cell-based. The note with it: Homo sapiens, HT-1080; inhibition of 2-HG production, HT1080 cells; read-out: HT1080 IC50. The gist of the method: (§1)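 Each cell line is plated at 5000 cells/well in DMEM with 10% FBS and left overnight at 37 °C. Test compounds are then added for 48 h, after which 2-HG in the medium is determined by LC-MS; IC50 reflects 50% reduction compared with control.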

The test system of experiment [3] is U87MG cells. Kind of experiment: Cellular assay for IDH1m inhibitors: inhibition of 2-HG production (LC-MS, 48 hours) in U87MG cells. The experiment is classed as cell-based. The settings on record: Homo sapiens, U-87 MG, inhibition of 2-HG production, U87R132H cells; read-out: U87R132H IC50. The method, boiled down:
as §1

IDH1 R132H, sequence (O75874 whole entry R132H): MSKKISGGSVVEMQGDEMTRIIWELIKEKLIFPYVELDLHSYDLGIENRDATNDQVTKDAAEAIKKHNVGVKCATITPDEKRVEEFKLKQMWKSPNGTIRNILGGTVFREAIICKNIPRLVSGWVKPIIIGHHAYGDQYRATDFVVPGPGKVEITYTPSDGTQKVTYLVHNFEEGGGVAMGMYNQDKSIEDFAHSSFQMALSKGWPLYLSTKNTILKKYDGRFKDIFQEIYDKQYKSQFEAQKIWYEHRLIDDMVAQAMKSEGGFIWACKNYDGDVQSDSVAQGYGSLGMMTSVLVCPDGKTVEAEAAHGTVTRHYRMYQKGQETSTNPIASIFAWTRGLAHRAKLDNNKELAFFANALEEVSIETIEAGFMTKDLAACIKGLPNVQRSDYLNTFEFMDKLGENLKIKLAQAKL

By IC50 is commonly meant the point on the concentration scale where inhibition reaches its midpoint. As to `COCCC(=O)N1CCN(c2nc(C3CC3)c(-c3cccnc3OC)c(C)c2C#N)C[C@H]1C` [Compound 320, (R)-2-cyclopropyl-2′-methoxy-6-[4-(3-methoxy-propionyl)-3-methyl-piperazin-1-yl]-4-methyl-[3,3′]bipyridinyl-5-carbonitrile], the IC50 was below 500 nM in experiment [1], 500 to 1000 nM in experiment [2] and below 500 nM in experiment [3].

As for `C=Cc1cc(Nc2cc(C#N)c(N3CCN(C(=O)CCOC)[C@H](C)C3)nc2C2CC2)ccn1` [Compound 642, (R)-6-cyclopropyl-2-(4-(3-methoxypropanoyl)-3-methylpiperazin-1-yl)-5-((2-vinylpyridin-4-yl)amino)nicotinonitrile], the IC50 in experiment [1], in experiment [2] and in experiment [3] was below 500 nM throughout.

Turning to `C=Cc1cc(-c2cc(C#N)c(N3CCN(C(=O)CC(F)(F)F)[C@H](C4CC4)C3)nc2C2CC2)ccn1` [Compound 498, (R)-2-cyclopropyl-6-(3-cyclopropyl-4-(3,3,3-trifluoropropanoyl)piperazin-1-yl)-2′-vinyl-3,4′-bipyridine-5-carbonitrile], the IC50 in experiment [1], in experiment [2] and in experiment [3] was below 500 nM each time.

Consider `C=Cc1cc(-c2cc(C#N)c(N3CCN(C(=O)C4CC4)[C@H](C4CC4)C3)nc2C2CC2)ncn1` [Compound 541, (R)-2-(4-(cyclopropanecarbonyl)-3-cyclopropylpiperazin-1-yl)-6-cyclopropyl-5-(6-vinylpyrimidin-4-yl)nicotinonitrile], for which the IC50 in experiment [1], in experiment [2] and in experiment [3] was below 500 nM in each case.

Regarding `COCCC(=O)N1CCN(c2nc(C3CC3)c(-c3ccc4nccn4c3)cc2C#N)C[C@H]1C` [Compound 436, (R)-6-cyclopropyl-5-imidazo[1,2-a]pyridin-6-yl-2-[4-(3-methoxy-propionyl)-3-methyl-piperazin-1-yl]-nicotinonitrile], the IC50 in experiment [1] is below 500 nM; in experiment [2], 500 to 1000 nM; in experiment [3], 500 to 1000 nM.

For the molecule `COCCC(=O)N1CCN(c2nc(C3CC3)c(OCc3cccc(C#N)c3)cc2C#N)C[C@H]1C` [Compound 294, (R)-5-(3-cyanobenzyloxy)-6-cyclopropyl-2-(4-(3-methoxypropanoyl)-3-methylpiperazin-1-yl)nicotinonitrile], the half-inhibitory concentration (IC50) is below 500 nM in experiment [1], 500 to 1000 nM in experiment [2] and 500 to 1000 nM in experiment [3].

On to `COCCC(=O)N1CCN(c2nc(C3CC3)c(OCc3cccnc3)cc2C#N)C[C@H]1C` [Compound 304, (R)-6-cyclopropyl-2-(4-(3-methoxypropanoyl)-3-methylpiperazin-1-yl)-5-(pyridin-3-ylmethoxy)nicotinonitrile], for which the half-inhibitory concentration (IC50) in experiment [1] was below 500 nM; in experiment [2], 1000 to 10000 nM; in experiment [3], 500 to 1000 nM.

For the molecule `COCCC(=O)N1CCN(c2nc(C3CC3)c(Nc3ccnc(C#N)c3)cc2C#N)C[C@H]1C` [Compound 660, (R)-4-(5-cyano-2-cyclopropyl-6-(4-(3-methoxypropanoyl)-3-methylpiperazin-1-yl)pyridin-3-ylamino)picolinonitrile], the IC50 in experiment [1], in experiment [2] and in experiment [3] was below 500 nM throughout.

`C=CC(=O)N(C)c1cccc(-c2cc(C#N)c(N3CCN(C(=O)CCOC)[C@H](C)C3)nc2C2CC2)c1` [Compound 427]: the 50% inhibitory concentration (IC50) in experiment [1], in experiment [2] and in experiment [3] was below 500 nM throughout.

As for `C=Cc1cc(Nc2cc(C#N)c(N3CCN(C(=O)CCO)[C@H](C4CC4)C3)nc2C2CC2)c2ccncc2n1` [Compound 722, (R)-6-cyclopropyl-2-(3-cyclopropyl-4-(3-hydroxypropanoyl)piperazin-1-yl)-5-((2-vinyl-1,7-naphthyridin-4-yl)amino)nicotinonitrile], the IC50 in experiment [1], in experiment [2] and in experiment [3] was below 500 nM each time.

With `C=Cc1cc(-c2cc(C#N)c(N3CCN(C(=O)C[C@H]4CCO4)[C@H](C)C3)nc2C2CC2)ccn1` [Compound 648, 2-cyclopropyl-6-((R)-3-methyl-4-(2-((R)-oxetan-2-yl)acetyl)piperazin-1-yl)-2′-vinyl-[3,4′-bipyridine]-5-carbonitrile], the IC50 in experiment [1], in experiment [2] and in experiment [3] was below 500 nM each time.

As to `C=CC(=O)N1CCC=C(c2c(C3CC3)nc(N3CCN(C(=O)CCO)[C@H](C(C)C)C3)c(C#N)c2C)C1` [Compound 762, (R)-1′-acryloyl-2-cyclopropyl-6-(4-(3-hydroxypropanoyl)-3-isopropylpiperazin-1-yl)-4-methyl-1′,2′,5′,6′-tetrahydro-[3,3′-bipyridine]-5-carbonitrile], the IC50 in experiment [1], in experiment [2] and in experiment [3] was below 500 nM in each case.

Consider `C=Cc1ccc2c(-c3cc(C#N)c(N4CCN(C(=O)CC(F)(F)F)[C@H](C5CC5)C4)nc3C3CC3)cccc2n1` [Compound 551, (R)-6-cyclopropyl-2-(3-cyclopropyl-4-(3,3,3-trifluoropropanoyl)piperazin-1-yl)-5-(2-vinylquinolin-5-yl)nicotinonitrile], for which the half-maximal inhibitory concentration (IC50) in experiment [1], in experiment [2] and in experiment [3] was below 500 nM each time.

For the molecule `N#Cc1cc(-c2cccc3c(O)nccc23)c(C2CC2)nc1N1CCN(C(=O)CC(F)(F)F)[C@H](C2CC2)C1` [Compound 547, (R)-6-cyclopropyl-2-(3-cyclopropyl-4-(3,3,3-trifluoropropanoyl)piperazin-1-yl)-5-(1-hydroxyisoquinolin-5-yl)nicotinonitrile], the IC50 in experiment [1], in experiment [2] and in experiment [3] was below 500 nM throughout.

As to `C=Cc1cc(COc2cc(C#N)c(N3CCN(C(=O)CCOC)[C@H](C)C3)nc2C2CC2)ccn1` [Compound 703, (R)-6-cyclopropyl-2-(4-(3-methoxypropanoyl)-3-methylpiperazin-1-yl)-5-((2-vinylpyridin-4-yl)methoxy)nicotinonitrile], the IC50 in experiment [1], in experiment [2] and in experiment [3] was below 500 nM throughout.

On to `CCC(Oc1cc(C#N)c(N2CCN(C(=O)CCOC)[C@H](C)C2)nc1C1CC1)c1ccccc1` (stereo partly drawn) [Compound 308, 6-cyclopropyl-2-((R)-4-(3-methoxypropanoyl)-3-methylpiperazin-1-yl)-5-(1-phenylpropoxy)nicotinonitrile], for which the figures for the IC50 in experiment [1], in experiment [2] and in experiment [3] were below 500 nM, 1000 to 10000 nM and 1000 to 10000 nM, respectively.

Consider `C=Cc1cc(-c2cc(C#N)c(N3CCN(C(=O)CC(C)(C)O)[C@H](C4CC4)C3)nc2C2CC2)ccn1` [Compound 561, (R)-2-cyclopropyl-6-(3-cyclopropyl-4-(3-hydroxy-3-methylbutanoyl)piperazin-1-yl)-2′-vinyl-3,4′-bipyridine-5-carbonitrile], for which the IC50 in experiment [1], in experiment [2] and in experiment [3] was below 500 nM throughout.

`C=Cc1cc(-c2cc(C#N)c(N3CCN(C(=O)CCO)[C@H](C4CC4)C3)nc2C2CC2)c2cc[nH]c2n1` [Compound 740, (R)-6-cyclopropyl-2-(3-cyclopropyl-4-(3-hydroxypropanoyl)piperazin-1-yl)-5-(6-vinyl-1H-pyrrolo[2,3-b]pyridin-4-yl)nicotinonitrile]: the half-maximal inhibitory concentration (IC50) in experiment [1], in experiment [2] and in experiment [3] was below 500 nM in each case.
